Measurements from ChEMBL document CHEMBL1151984, “Dietary derived sesquiterpenes from Phyllodesmium lizardensis” (J Nat Prod, 2009).
Active and inactive are the calls of the source.

How the values were obtained:
Type in all cases: functional, organism-based
Priestia megaterium = assay: Antibacterial activity against Bacillus megaterium at 50 ug/disk
Microbotryum violaceum = assay: […] activity against Microbotryum violaceum at 50 ug/disk
Mycotypha microspora = assay: Antifungal activity against Mycotypha microspora at 50 ug/disk
Escherichia coli = assay: Antibacterial activity against Escherichia coli at 50 ug/disk
Aspergillus ruber = assay: Antifungal activity against Eurotium rubrum at 50 ug/disk

Measured: Activity

CC(=O)O[C@@H]1C[C@H]2C(C)=CC[C@H](C(C)C)[C@H]2C=C1C
inactive: Priestia megaterium | Microbotryum violaceum | Mycotypha microspora | Escherichia coli | Aspergillus ruber

CC1=C[C@@H]2[C@@H](C(C)C)CC=C(C)[C@@H]2C[C@H]1O
inactive: Priestia megaterium | Microbotryum violaceum | Mycotypha microspora | Escherichia coli | Aspergillus ruber
